Biological target: T1, GAT2 (Homo sapiens, UniProt Q9NSD5)
T1 sequence (Q9NSD5 1-602): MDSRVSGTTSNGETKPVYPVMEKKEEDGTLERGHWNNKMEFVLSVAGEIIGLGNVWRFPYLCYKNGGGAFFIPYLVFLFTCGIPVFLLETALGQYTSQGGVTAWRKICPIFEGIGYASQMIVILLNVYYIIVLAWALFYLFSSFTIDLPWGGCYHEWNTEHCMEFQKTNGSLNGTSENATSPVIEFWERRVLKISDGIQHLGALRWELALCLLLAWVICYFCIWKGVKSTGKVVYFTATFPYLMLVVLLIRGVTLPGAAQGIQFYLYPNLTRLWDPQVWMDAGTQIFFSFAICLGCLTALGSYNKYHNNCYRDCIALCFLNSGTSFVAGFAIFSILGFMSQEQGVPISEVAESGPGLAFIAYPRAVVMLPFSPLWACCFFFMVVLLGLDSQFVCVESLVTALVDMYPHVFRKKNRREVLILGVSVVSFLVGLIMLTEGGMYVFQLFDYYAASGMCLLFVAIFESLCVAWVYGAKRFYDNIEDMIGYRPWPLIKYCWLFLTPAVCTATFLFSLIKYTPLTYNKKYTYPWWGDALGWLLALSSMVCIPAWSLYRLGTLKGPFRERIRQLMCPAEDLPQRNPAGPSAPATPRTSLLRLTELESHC
Test: [3H]-GABA uptake in transfected HEK293S GnTI− cells
Assay type: cell-based

## NCCCC(=O)O [GABA]
  [3H]-GABA uptake in transfected HEK293S GnTI- cells: Specific uptake of [^3H]-GABA in HEK293S cells expressing wild-type GAT1, wild-type GAT2

From publication PMC9394549 (Nature, 2022)
